36 molecules from patent publication EP0533240A2, “Substituted amine derivatives of piperazinylcamphorsulfonyl oxytocin antagonists” (MERCK & CO. INC., priority 1991, dated 1993) can be followed below.

One experiment deals with T1, uterine OT receptors (Rattus norvegicus, UniProt P70536).
T1 construct: from tissue; host or cells: uterus of DES-treated rats, crude membrane preparation
T1 sequence (P70536 1-388): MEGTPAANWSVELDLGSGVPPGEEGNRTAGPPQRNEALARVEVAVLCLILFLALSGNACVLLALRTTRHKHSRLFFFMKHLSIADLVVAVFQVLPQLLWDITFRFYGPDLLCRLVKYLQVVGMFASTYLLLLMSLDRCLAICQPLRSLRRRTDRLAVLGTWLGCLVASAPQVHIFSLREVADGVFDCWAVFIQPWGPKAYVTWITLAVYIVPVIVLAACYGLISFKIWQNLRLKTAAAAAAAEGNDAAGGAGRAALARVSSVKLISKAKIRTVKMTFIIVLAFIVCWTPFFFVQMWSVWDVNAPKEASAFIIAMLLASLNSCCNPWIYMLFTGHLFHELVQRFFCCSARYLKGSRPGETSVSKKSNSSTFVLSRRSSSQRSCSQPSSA
Description: [3H]Oxytocin radioligand binding assay, crude uterine membrane preparation. Further details: species or system rats. Conditions: at 100 nM compound; 1 nM [3H]OT, rat uterine membranes.
Description: Oxytocin (OT)([tyrosyl, 3,5-[^3H]OT; 30-60 Ci/mmol; New England Nuclear. Boston, MA) to uterine OT receptors was based on an assay*using a crude membrane preparation of uteri taken from diethylstilbestrol dipropionate (DES)-treated (0.3 mg/kg, ip; 18-24) rats. Competetion studies were conducted at equilibrium (60 minutes; 22 °C) using 1 nM[^3H]OT in the following assay buffer: 50 mM Tris-HCI, 5 mM MgCl2, and 0.1% BSA, pH 7.4. Nonspecific binding (10% of the total binding) was determined using 1µM unlabeled OT and the binding reaction was terminated by filtration through glass fiber filters using a cell harvester (model 7019, Skatron, Inc., Sterling, VA).
As for `C=CC1(O)CC2CCC1(CS(=O)(=O)N1CCN(c3ccccc3C)CC1)C2(C)C` (stereo not drawn) [Example 12, 1-((7,7-dimethyl-2-exo-hydroxy-2-endo-ethenyl-bicyclo(2.2.1)heptan-1-yl)methanesulfonyl)-4-(2-methylphenyl)piperazine], the inhibition at 0.1 µM amounted to 23%.

As for `COC(=O)CCNCC(C)C1(O)CC2CCC1(CS(=O)(=O)N1CCN(c3ccccc3C)CC1)C2(C)C` (stereo not drawn) [Example 10], the inhibition at 0.1 µM amounted to 48%.

`CCOC(=O)CN1CCCC(C(=O)NC(C)CC2(O)CC3CCC2(CS(=O)(=O)N2CCN(c4ccccc4C)CC2)C3(C)C)C1` (stereo not drawn) [Example 57]: the “inhibition at 100 nM” value is given as 66% inhibition at 100 nM.

The experiment is the same for the next values; noted with them: at 1,000 nM compound; 1 nM [3H]OT, rat uterine membranes.
In the case of `Cc1ccccc1N1CCN(S(=O)(=O)CC23CCC(CC2=CCN=[N+]=[N-])C3(C)C)CC1` (stereo not drawn) [Example 15, 1-((7,7-dimethyl-2-(2-azido)ethylidine-bicyclo(2.2.1)heptan-1-yl)methanesulfonyl)-4-(2-methylphenyl)-piperazine], the inhibition at 1 µM is 44%.

In turn, `Cc1ccccc1N1CCN(S(=O)(=O)CC23CCC(CC24CO4)C3(C)C)CC1` (stereo not drawn) [Example 18] showed an inhibition at 1 µM of 75%.

For `Cc1ccccc1N1CCN(S(=O)(=O)CC23CCC(CC2=CCN)C3(C)C)CC1` (stereo not drawn) [Example 16, 1-((7,7-dimethyl-2-(2-amino)ethylidine-bicyclo(2.2.1)heptan-1-yl)methanesulfonyl)-4-(2-methylphenyl)-piperazine], the inhibition at 1 µM was found to be 64%.

With `Cc1ccccc1N1CCN(S(=O)(=O)CC23CCC(CC2N(C)C(=O)OCc2ccccc2)C3(C)C)CC1` (stereo not drawn) [Example 40], the inhibition at 1 µM was 35%.

`Cc1ccccc1N1CCN(S(=O)(=O)CC23CCC(CC2NC(=O)OCc2ccccc2)C3(C)C)CC1` (stereo not drawn) [Example 39] yielded an inhibition at 1 µM of 54%.

As for `COC(=O)C1=CC2CCC1(CS(=O)(=O)N1CCN(c3ccccc3C)CC1)C2(C)C` (stereo not drawn) [Example 20, 1-((7,7-DIMETHYL-2-METHOXYCARBONYL-BICYCLO (2.2.1)HEPT-2-EN-1-YL)METHANESULFONYL)-4-(2-METHYLPHENYL)PIPERAZINE], the inhibition at 1 µM was 72%.

For `Cc1ccccc1N1CCN(S(=O)(=O)CC23CCC(CC2O)C3(C)C)C(C)C1` (stereo not drawn) [Example 32], the inhibition at 1 µM was found to be 37%.

In the case of `Cc1ccccc1N1CCN(S(=O)(=O)CC23CCC(CC2(O)CNCC(C)C)C3(C)C)CC1` (stereo not drawn) [Example 19, 1-((7,7-DIMETHYL-2-EXO-HYDROXY-2-ENDO-ISOBUTYLAMINOMETHYL-BICYCLO(2.2.1 )HEPTAN-1-YL)-METHANESULFONYL)-4-(2-METHYLPHENYL)PIPERAZINE], the inhibition at 1 µM was determined as 31%.

On to `Cc1ccccc1N1CCN(S(=O)(=O)CC23CCC(C=C2C(=O)O)C3(C)C)CC1` (stereo not drawn) [Example 21, 1-((7,7-DIMETHYL-2-CARBOXY-BICYCLO(2.2.1) HEPT-2-EN-1 -YL)METHANESULFONYL)-4-(2-METHYLPHENYL)PIPERAZINE], for which the inhibition at 1 µM came to 38%.

Staying with this experiment, now noted: at 10,000 nM compound; 1 nM [3H]OT, rat uterine membranes.
On to `Cc1ccccc1N1CCN(S(=O)(=O)CC23CCC(CC2=O)C3(C)C)CC1=O` (stereo not drawn) [Example 30], for which the inhibition at 10 µM came to 16%.

In the case of `Cc1ccccc1N1CCN(S(=O)(=O)CC23CCC(CC2=O)C3(C)C)C(C)C1=O` (stereo not drawn) [Example 31], the inhibition at 10 µM came to 5%.

Staying with this experiment, now noted: competition with 1 nM [3H]OT, 60 minutes, 22 °C, membranes of uteri from DES-treated rats.
The molecule `Cc1ccccc1N1CCN(S(=O)(=O)CC23CCC(CC2(O)C(C)CNC(=O)C2CN4CCC2CC4)C3(C)C)CC1` (stereo not drawn) [Example 8] showed an IC50 of 18 nM. This counts as double-digit nanomolar.

`Cc1ccccc1N1CCN(S(=O)(=O)CC23CCC(CC2(O)C(C)CN)C3(C)C)CC1` (single isomer, unassigned) [Example 3, 1-((7,7-DIMETHYL-2-EXO-HYDROXY-2-ENDO-2-(1-AMINO)PROPYL-BICYCLO(2.2.1 )HEPTAN-1-YL)-METHANESULFONYL)-4-(2-METHYLPHENYL)PIPERAZINE] displayed an IC50 of 180 nM.

As to `Cc1ccccc1N1CCN(S(=O)(=O)CC23CCC(CC2(O)C(C)CNC(=O)C2CCCN2CCC(=O)O)C3(C)C)CC1` (stereo not drawn) [Example 46], the IC50 came out at 20 nM.

`Cc1ccccc1N1CCN(S(=O)(=O)CC23CCC(CC2(O)C(C)CNC(=O)C2CCCNC2)C3(C)C)CC1` (stereo not drawn) [Example 47, 1-((7,7-DIMETHYL-2-EXO-HYDROXY-2-ENDO-2-(1-(3-PIPERIDINYLCARBONYL)AMINO)PROPYL-BICYCLO-(2.2.1)HEPTAN-1-YL) METHANESULFONYL)-4-(2-METHYLPHENYL)PIPERAZINE]: the IC50 was 15 nM. This IC50 and that of the molecule before are within 1.5-fold of each other.

`CCOC(=O)CCCN1CCCC1C(=O)NCC(C)C1(O)CC2CCC1(CS(=O)(=O)N1CCN(c3ccccc3C)CC1)C2(C)C` [Example 5, 1-((7,7-DIMETHYL-2-EXO-HYDROXY-2-ENDO-2-(1-(L-N-(ETHOXYCARBONYLPROPYL)PROLYL)AMINO)-PROPYL-BICYCLO-(2.2.1)HEPTAN-1-YL)METHANESULFONYL)-4-(2-METHYLPHENYL) PIPERAZINE] gave an IC50 of 100 nM.

`Cc1ccccc1N1CCN(S(=O)(=O)CC23CCC(CC2(O)C(C)CNC(=O)C2CCN(CC(=O)O)CC2)C3(C)C)CC1` (stereo not drawn) [Example 58, 1-((7,7-DIMETHYL-2-EXO-HYDROXY-2-ENDO-2-(1-(4-(1-CARBOXYMETHYL)PIPERIDINYLCARBONYL)-AMINO)PROPYL-BICYCLO (2.2.1)HEPTAN-1-YL)METHANESULFONYL)-4-(2-METHYLPHENYL) PIPERAZINE] yielded an IC50 of 56 nM.

In turn, `Cc1ccccc1N1CCN(S(=O)(=O)CC23CCC(CC2(O)C(C)CNC(=O)C2CCCN2)C3(C)C)CC1` (stereo not drawn) [Example 4] had an IC50 of 34 nM.

Regarding `Cc1ccccc1N1CCN(S(=O)(=O)CC23CCC(CC2(O)C(C)CNC(=O)Cc2c[nH]cn2)C3(C)C)CC1` (stereo not drawn) [Example 7], the IC50 was found to be 8 nM.

Molecule `COC(=O)CCN(CCC(=O)OC)CC(C)C1(O)CC2CCC1(CS(=O)(=O)N1CCN(c3ccccc3C)CC1)C2(C)C` (stereo not drawn) [Example 11, 1-((7,7-dimethyl-2-exo-hydroxy-2-endo-2-(1-bis-(2-methoxycarbonylethyl)amino)propylbicyclo(2.2.1)heptan-1-yl)methanesulfonyl)-4-(2-methylphenyl)piperazine] registered an IC50 of 54 nM.

`Cc1ccccc1N1CCN(S(=O)(=O)CC23CCC(CC2NC(=O)C(C)c2c[nH]cn2)C3(C)C)CC1` (stereo not drawn) [Example 44, 1-((7,7-DIMETHYL-2-ENDO-(2-(4-IMIDAZOLYL)PROPANOYL)AMINO-BICYCLO(2.2.1 )HEPTAN-1-YL)-METHANESULFONYL)-4-(2-METHYLPHENYL)-3-PIPERAZINE] had an IC50 of 180 nM.

Turning to `Cc1ccccc1N1CCN(S(=O)(=O)CC23CCC(CC2(O)C(C)CNC(=O)C2CCCN2CCCC(=O)O)C3(C)C)CC1` [Example 6, 1-((7,7-DIMETHYL-2-EXO-HYDROXY-2-ENDO-2-(1-(L-N-(3-CARBOXYPROPYL)PROLYL)AMINO)PROPYL-BICYCLO(2.2.1) HEPTAN-1 -YL)METHANESULFONYL)-4-(2-METHYLPHENYL) PIPERAZINE], the IC50 was 10 nM. This IC50 lies about 18-fold lower than the previous one.

`COC(=O)CCN1CCC(C(=O)NCC(C)C2(O)CC3CCC2(CS(=O)(=O)N2CCN(c4ccccc4C)CC2)C3(C)C)CC1` (stereo not drawn) [Example 55] had an IC50 of 30 nM.

Molecule `Cc1ccccc1N1CCN(S(=O)(=O)CC23CCC(CC2(O)C(C)CNC(=O)C2CCCN(CC(=O)O)C2)C3(C)C)CC1` (stereo not drawn) [Example 51] returned a 50% inhibitory concentration (IC50) of 38 nM.

In the case of `Cc1ccccc1N1CCN(S(=O)(=O)CC23CCC(CC2NC(=O)[C@@H](N)CCS(C)(=O)=O)C3(C)C)CC1=O` (stereo partly drawn) [Example 36, 1-((7,7-DIMETHYL-2-ENDO-(2S-AMINO-4-(METHYLSULFONYL)BUTYRAMIDO)-BICYCLO(2.2.1 )HEPTAN-1-YL)METHANESULFONYL)-4-(2-METHYLPHENYL)-3-PIPERAZINONE], the IC50 was found to be 7.7 nM.

For `Cc1ccccc1N1CCN(S(=O)(=O)CC23CCC(CC2=CCNCC(C)C)C3(C)C)CC1` (stereo not drawn) [Example 14, 1-((7,7-dimethyl-2-(2-isobutylamino)ethylidine-bicyclo (2.2.1)heptan-1-yl)methanesulfonyl)-4-(2-methylphenyl) piperazine], the IC50 was found to be 1100 nM.

`Cc1ccccc1N1CCN(S(=O)(=O)CC23CCC(CC2(O)C(C)CNC(=O)C2CCCN2CC(=O)O)C3(C)C)CC1` (stereo not drawn) [Example 53] gave an IC50 of 28 nM. Against the preceding molecule, the IC50 is about 39-fold lower.

As to `COC(=O)CCN1CCCC(C(=O)NCC(C)C2(O)CC3CCC2(CS(=O)(=O)N2CCN(c4ccccc4C)CC2)C3(C)C)C1` (stereo not drawn) [Example 48], the IC50 came to 30 nM.

As to `Cc1ccccc1N1CCN(S(=O)(=O)CC23CCC(CC2(O)C(C)CNC(=O)C2CCCN(CCC(=O)O)C2)C3(C)C)CC1` (stereo not drawn) [Example 49, 1-((7,7-DIMETHYL-2-EXO-HYDROXY-2-ENDO-2-(1-(3-(1-CARBOXYETHYL)PIPERIDINYLCARBONYL)-AMINO)PROPYL-BICYCLO-(2.2.1)HEPTAN-1-YL)METHANESULFONYL)-4-(2-METHYLPHENYL) PIPERAZINE], the concentration for half-maximal inhibition (IC50) was found to be 25 nM.

The molecule `Cc1ccccc1N1CCN(S(=O)(=O)CC23CCC(CC2(O)C(C)CNC(=O)C2CCNCC2)C3(C)C)CC1` (stereo not drawn) [Example 54] had an IC50 of 14 nM.

`Cc1ccccc1N1CCN(S(=O)(=O)CC23CCC(CC2=O)C3(C)C)CC1` (stereo not drawn) [Example 1, 1-((7,7-DIMETHYL-2-OXO-BICYCLO(2.2.1)HEPTAN-1-YL) METHANESULFONYL)-4-(2-METHYLPHENYL)-PIPERAZINE] came in with an IC50 of 1000 nM.

In the case of `COC(=O)C1CC(=O)N(CC(C)C2(O)CC3CCC2(CS(=O)(=O)N2CCN(c4ccccc4C)CC2)C3(C)C)C1` (stereo not drawn) [Example 26], the IC50 amounted to 35 nM.

Turning to `Cc1ccccc1N1CCN(S(=O)(=O)CC23CCC(CC2NC(=O)Cc2c[nH]cn2)C3(C)C)CC1` (stereo not drawn) [Example 43], the IC50 was found to be 110 nM.
